The values below come from US8974768B2, “Azo compounds reducing formation and toxicity of amyloid beta aggregation intermediates” (Max-Delbrueck-Centrum fuer Molekulare Medizin, priority 2010, dated 2015).

One data set deals with Aβ1-42 peptide (Homo sapiens, UniProt P05067). In words: Thioflavin T (Thio T)-assay of Aβ aggregation. Format: biochemical.
Another data set can be described thus: in vitro. The following applies: human.
Data set [1] is described as follows: Detection of compounds in brain after in vivo administration. Conditions: for Detection in brain after i.v. administration: B6C3 mouse, 5 mg/kg body weight i.v. once, brain samples; for Detectability after oral administration: mouse brain, oral gavage or feeding pellets; for Detection in brain after oral administration, feeding pellet preparation / Detection in brain after oral administration, oral gavage administration: mouse; for Detection in brain after oral administration, feeding pellet preparation: brain samples after one week feeding; for Detection in brain after oral administration, oral gavage administration: five to seven doses over two or three days, sampling 30 min. after last application.

For the next data set, the system named is Tg2576 mice. In words: Contextual fear conditioning in Tg2576 mice. Conditions: 9-month-old Tg2576 mice, feeding pellets for 12 weeks. Format: in vivo, mouse. On the procedure:
Groups of Tg2576 mice overexpressing the 695-amino acid isoform of human amyloid precursor protein containing a Lys670→Asn, Met671→Leu mutation (Hsiao, K. Science 1996) and wildtype control mice (13-21 per phenotype) were conditioned on day 1 by placing a subject mouse in a contextual fear conditioning chamber (Med Associates, […], Vt.). Exploration was allowed for 2 min, and an auditory cue was presented for 15 s accompanied by an electrical foot shock during the last 2 s. This procedure was repeated and mice were removed from the chamber after 30 s. Twenty hours later, mice were returned to the chamber in which conditioning occured, and their freezing behaviour (fear) was monitored. Freezing was defined as the lack of all movements, except those required for breathing (Comery, T. A., et al. Journal of Neuroscience, 2005). Data were analysed by two-way ANOVA in the S programming environment, followed by Fischer's least significant difference (LSD) pairwise comparison of group means at the p<0.05 significance level.
The contextual fear conditioning paradigm is a form of Pavlovian learning in which an association is made between stimuli and their aversive consequences. Studies of brain function implicate the amygdala in regulating fear, and the hippocampus in regulating the learning of the context in which a fearful event occurred.
The brain circuitry in wild type mice is intact and they are better able to associate an aversive foot shock with the context or environment in which the shock took place. They therefore show more freezing. Transgenic Alzheimer mice have compromised brain circuitry due to the toxic effects of amyloid-beta protein. They are therefore less able to associate an aversive shock with a context and show less freezing.
A substance that reverses the toxic effects of amyloid-beta in Alzheimer's mice will help in reconsolidating the impaired brain circuitry so that these mice begin to show more fear (freezing behavior) after treatment. This paradigm is therefore a robust method for showing the effect of drug candidate molecules in Alzheimer mice.

Details of data set [2]: Detection in brain after i.v. administration: key to the marks not given beside the values. Conditions: mouse, in vivo; for Detection in brain after i.v. administration: iv, 5 mg/kg.
The subject of a further data set is 5XFAD mice. In words: Nest building behaviour in 5XFAD mice. Format: in vivo, mouse. On the procedure: 3a: Nestlet usage; 3b: Nestlet quality score.
One hour before the dark phase, mice were housed individually in a cage with wood-chip bedding material. Each mouse was given 3 g of nestlet material made of compressed cotton (Lillico Biotech, UK). The amount of intact, i.e. non-used, nesting material was weighed after 16 hours and nest building was assessed using the following rating scale (Deacon et al., 2006, Tomida et al., 2009): 1, >90% intact; 2, 50-90% intact; 3, 10-50% intact: 4, 0-10% intact, but flat nest; 5, 0-10%, with nests higher than the mice. The amount of intact nesting material was weighed. The data were non-normally distributed.
Non normally distributed data were analyzed by a Kruskal Wallis test. A post-hoc test using Mann-Whitney tests with Bonferroni corrections was then used for group comparisons.
Nest building is one of several species-typical behavior in mice seen in semi-naturalistic situations. […] Alzheimer's disease in 5XFAD mice will damage these areas, leading to memory impairments in some standard cognitive tests, and to an impairment of species-typical behaviors like nesting.
The brain circuitry of wild type mice is intact so they show robust nest building behavior. Transgenic 5XFAD on the other hand have impaired brain circuitry due to the noxious effects of human amyloid-beta protein. They are therefore less able to fulfill this important house-keeping species typical behavior (Deacon R M. (2006): Assessing nest building in mice. Nat Protoc. 2006; 1(3):1117-9; Tomida et al (2009): Usp46 is a quantitative trait gene regulating mouse immobile behavior in the tail suspension and forced swimming tests. Nat Genet. 2009 June; 41(6):688-95. Epub 2009 May 24.).

Setting [3] is: 30 μM Aβ1-42 peptide, 48 h at 37° C., vs DMSO control, read-out: ThioT: IC50.
Setting [4] is: transgenic and wild-type mice vs control mice.

Read-outs that look alike come from different tables or passages of the source. Marks after values point to notes of the source that are not given here.

Aβ1-42 peptide, sequence (P05067 672-713): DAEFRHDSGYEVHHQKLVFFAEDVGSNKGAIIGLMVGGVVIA

For orientation: IC50 means the concentration at which inhibition is half-maximal. With `Cc1cc(O)cc(O)c1N=Nc1ccc([N+](=O)[O-])cc1` [Compound 19, 5-methyl-4-((4-nitrophenyl)diazenyl)benzene-1,3-diol], the IC50 at Aβ1-42 peptide (setting [3]) stood at 0.9 µM. For the same compound, the half-inhibitory concentration (IC50) at 48 h in “in vitro” was approximately 41 µM. In addition, in data set [1], the “Detection in brain after i.v. administration” value is reported as “++”.
In the same order, the values of `Cc1cc(O)cc(O)c1N=Nc1nccs1` [Compound 22, 5-methyl-4-(thiazol-2-yldiazenyl)benzene-1,3-diol] are 2.4 µM, approximately 101 µM and “−”.
With `c1ccc(N=Nc2ccc(Nc3ccccc3)cc2)cc1` [Compound 1, N-phenyl-4-(phenyldiazenyl)aniline], at Aβ1-42 peptide (setting [3]), the half-inhibitory concentration (IC50) stood at 4.5 µM. In addition, in the data set on Tg2576 mice, the “Contextual memory (freezing behaviour)” value was “improvement”. The concentration for half-maximal inhibition (IC50) at 48 h in the data set “in vitro” was more than 30 µM. In data set [1], the “Detection in brain after i.v. administration” value is recorded as “++”; the “Detectability after oral administration” value is on record as “excellent”; the “Detection in brain after oral administration, feeding pellet preparation” value (“Detection in brain … feeding pellet preparation” below) is given as “++^a), b)”; the “Detection in brain after oral administration, oral gavage administration” value (“Detection in brain … oral gavage administration” for short) is “++^a), b)”.
As to `Cc1cc(N=Nc2nccs2)c(O)cc1O` [Compound 18, 4-methyl-6-(thiazol-2-yldiazenyl)benzene-1,3-diol], the IC50 on Aβ1-42 peptide (setting [3]) was 2.4 µM. Further, the IC50 at 48 h in the data set “in vitro” was approximately 13 µM. Further, in data set [1], the “Detection in brain after i.v. administration” value is listed as “++”; the “Detectability after oral administration” value is recorded as “excellent”; the “Detection in brain … oral gavage administration” value was “++^b)/n.d.^b)”.
Take `O=[N+]([O-])c1ccc(N=Nc2ccc(O)cc2O)cc1` [Compound 13, 4-((4-nitrophenyl)diazenyl)benzene-1,3-diol]: the IC50 on Aβ1-42 peptide (setting [3]) was determined as 1.1 µM. The same compound registered a half-inhibitory concentration (IC50) in “in vitro” of approximately 2 µM. In addition, in data set [1], the “Detection in brain after i.v. administration” value is recorded as “++”; the “Detectability after oral administration” value is recorded as “excellent”; the “Detection in brain … feeding pellet preparation” value is “++^a), b)”; the “Detection in brain … oral gavage administration” value is on record as “++^a), b)”.
For the compound `Oc1ccc(N=Nc2cc(Cl)ccc2Cl)c(O)c1` [Compound 20, 4-((2,5-dichlorophenyl)diazenyl)benzene-1,3-diol], on Aβ1-42 peptide (setting [3]), the IC50 was 1.3 µM. In addition, the IC50 at 48 h in the data set “in vitro” was approximately 3 µM. In addition, the “Detection in brain after i.v. administration” value in data set [1] is recorded as “++”.
`CN(C)c1ccc(N=Nc2ccc(N)cc2)cc1` [Compound 9, 4-((4-aminophenyl)diazenyl)-N,N-dimethylaniline] displayed an IC50 against Aβ1-42 peptide of 2.1 µM. Besides, the “Contextual memory (freezing behaviour)” value with Tg2576 mice is “improvement”. Also, in data set [2], the “Detection in brain after i.v. administration” value is reported as “++”; the “Detectability after oral administration” value is recorded as “excellent”; the “Detection in brain … feeding pellet preparation” value is reported as “++^a)/+^b)”; the “Detection in brain … oral gavage administration” value is given as “++^a)/+^b)”. Besides, the IC50 in “in vitro” was more than 100 µM.
Take `Oc1ccc(N=Nc2ccccn2)c(O)c1` [Compound 12, 4-(pyridin-2-yldiazenyl)benzene-1,3-diol]: the IC50 on Aβ1-42 peptide (setting [3]) was determined as 3 µM. In “in vitro”, the 50% inhibitory concentration (IC50) at 48 h is more than 1 µM. Besides, the “Detection in brain after i.v. administration” value in data set [1] was “−”.
Regarding `Oc1ccc(N=Nc2ccccc2)cc1` [Compound 4, 4-(phenyldiazenyl)phenol], the concentration for half-maximal inhibition (IC50) on Aβ1-42 peptide (setting [3]) is 13.2 µM. This compound showed an IC50 at 48 h in “in vitro” of approximately 90 µM.
In the case of `CN(C)c1ccc(N=Nc2ccc(N=C=S)cc2)cc1` [Compound 10, 4-((4-isothiocyanatophenyl)diazenyl)-N,N-dimethylaniline], the IC50 on Aβ1-42 peptide was 0.4 µM. Moreover, in data set [2], the “Detection in brain after i.v. administration” value is listed as “++”; the “Detectability after oral administration” value is given as “excellent”; the “Detection in brain … feeding pellet preparation” value was “++^a), b)”; the “Detection in brain … oral gavage administration” value is given as “++^a), b)”. The half-maximal inhibitory concentration (IC50) in “in vitro” is more than 100 µM.
`CN(C)c1ccc(N=Nc2ccccc2)cc1` [Compound 21, N,N-dimethyl-4-(phenyldiazenyl)aniline]: the half-inhibitory concentration (IC50) on Aβ1-42 peptide is 16.8 µM; in the data set “in vitro”, more than 100 µM.
Regarding `Nc1ccc(N=Nc2cccc(N=Nc3ccc(N)cc3N)c2)c(N)c1` [Compound 6, 4,4′-1,3-phenylenebis(diazene-2,1-diyl)dibenzene-1,3-diamine], the IC50 at Aβ1-42 peptide (setting [3]) was determined as 0.9 µM. For the same compound, the IC50 at 48 h in “in vitro” was approximately 11 µM. The “Detection in brain after i.v. administration” value in data set [1] is “++”.
With `O=[N+]([O-])c1ccc(N=Nc2ccc(Nc3ccccc3)cc2)cc1` [Compound 2, 4-((4-nitrophenyl)diazenyl)-N-phenylaniline], at Aβ1-42 peptide (setting [3]), the half-maximal inhibitory concentration (IC50) came to 1.7 µM. For the same compound, the “Contextual memory (freezing behaviour)” value with Tg2576 mice is recorded as “improvement”. The Nest building behavior result in the data set with 5XFAD mice (5XFAD mice, pelleted mouse chow for 8.5 months) is recorded as “improved”. Moreover, the “Nest building behavior in transgenic mice” value with 5XFAD mice (transgenic 5XFAD mice, higher concentration (625 mg/kg feed) vs control mice) was “significantly enhanced”. In the data set with 5XFAD mice (setting [4]), the “Nest building behavior (nestlet usage, FIG. 3a)” value is recorded as “increased” and the “Nestlet quality score (FIG. 3b)” value is on record as “increases”. The IC50 at 48 h in the data set “in vitro” is more than 100 µM. Further, in data set [1], the “Detection in brain after i.v. administration” value is recorded as “++”; the “Detection in brain … feeding pellet preparation” value was “++^a), b)”; the “Detection in brain … oral gavage administration” value is “++^a), b)”.
As for `CCNc1ccc2ccccc2c1N=Nc1ccc(N=Nc2ccccc2)cc1` [Compound 7, N-ethyl-1-((4-(-phenyldiazenyl)phenyl)diazenyl)naphthalen-2-amine], the 50% inhibitory concentration (IC50) at Aβ1-42 peptide (setting [3]) worked out at 3.1 µM. This compound also gave an IC50 at 48 h in the data set “in vitro” of more than 3 µM. Moreover, in data set [1], the “Detection in brain after i.v. administration” value was “++”.
In the same order, the values of `Oc1ccc2ccccc2c1N=Nc1ccccn1` [Compound 5, 1-(pyridin-2-yldiazenyl)naphthalen-2-ol] are 12.2 µM, more than 10 µM and “++”.
For `Oc1ccc(N=Nc2nccs2)c(O)c1` [Compound 14, 4-(thiazol-2-yldiazenyl)benzene-1,3-diol], in that order: 4.8 µM, more than 3 µM and “−”.
